Results as given in patent US9791444B2, “Method for differentially quantifying naturally processed HLA-restricted peptides for cancer, autoimmune and infectious diseases immunotherapy development” (IMMATICS BIOTECHNOLOGIES GMBH, priority 2010, dated 2017).

Test system: CD8+ T cells from HLA-A*24 healthy donors
Test: In vitro immunogenicity: in vitro priming of CD8+ T cells with pMHC/anti-CD28 coated beads (aAPC), A*2402 multimer staining
Type: cell-based, human
Details: HLA-A*2402 restricted, three stimulation cycles; for Positive wells/wells tested [%]: at least 24 wells evaluable for each peptide, positive well = at least 1% specific multimer+ among CD8+ and at least 10x median of negative controls; for Positive donors/donors tested [%]: at least two donors evaluable for each peptide
From the text: To get information regarding the immunogenicity of the TUMAPs of the present invention, we performed investigations using a well established in vitro stimulation platform already described by (Walter, S, Herrgen, L, Schoor, O, Jung, G, Wernet, D, Buhring, H J, Rammensee, H G, and Stevanovic, S; 2003, Cutting edge: predetermined avidity of human CD8 T cells expanded on calibrated MHC/anti-CD28-coated microspheres, J. Immunol., 171, 4974-4978).
In order to perform in vitro stimulations by artificial antigen presenting cells (aAPC) loaded with peptide-MHC complex (pMHC) and anti-CD28 antibody, we first isolated CD8 T cells from fresh HLA-A*24 leukapheresis products of healthy donors obtained from the Blood Bank Tuebingen.
CD8 T cells were either directly enriched from the leukapheresis product or PBMCs (peripheral blood mononuclear cells) were isolated first by using standard gradient separation medium (PAA, Cölbe, Germany). Isolated CD8 lymphocytes or PBMCs were incubated until use in T-cell medium (TCM) consisting of RPMI-Glutamax (Invitrogen, Karlsruhe, Germany) supplemented with 10% heat inactivated human AB serum (PAN-Biotech, Aidenbach, Germany), 100 U/ml Penicillin/100 μg/ml Streptomycin (Cambrex, Cologne, Germany), 1 mM sodium pyruvate (CC Pro, Oberdorla, Germany), 20 μg/ml Gentamycin (Cambrex). 2.5 ng/ml IL-7 (PromoCell, Heidelberg, Germany) and 10 U/ml IL-2 (Novartis Pharma, Nürnberg, Germany) were also added to the TCM at this step. Isolation of CD8+ lymphocytes was performed by positive selection using CD8 MicroBeads (Miltenyi Biotec, Bergisch-Gladbach, Germany).
Generation of pMHC/anti-CD28 coated beads, T-cell stimulations and readout was performed as described before (Walter et al. 4974-78) with minor modifications. Briefly, biotinylated peptide-loaded recombinant HLA-A*2402 molecules lacking the transmembrane domain and biotinylated at the carboxy terminus of the heavy chain were produced. The purified costimulatory mouse IgG2a anti human CD28 Ab 9.3 (Jung, Ledbetter, and Muller-Eberhard 4611-15) was chemically biotinylated using Sulfo-N-hydroxysuccinimidobiotin as recommended by the manufacturer (Perbio, Bonn, Germany).
800.000 beads/200 μl were coated in 96-well plates in the presence of 600 ng biotin anti-CD28 plus 200 ng relevant biotin-pMHC (high density beads). Stimulations were initiated in 96-well plates by co-incubating 1×10^6 CD8+ T cells with 2×10^5 washed coated beads in 200 μl TCM supplemented with 5 ng/ml IL-12 (PromoCell) for 3-4 days at 37° C. Half of the medium was then exchanged by fresh TCM supplemented with 80 U/ml IL-2 and incubating was continued for 3-4 days at 37° C. This stimulation cycle was performed for a total of three times. Finally, multimeric analyses were performed by staining the cells with Live/dead-Aqua dye (Invitrogen, Karlsruhe, Germany), CD8-FITC antibody clone SK1 (BD, Heidelberg, Germany) and PE- or APC-coupled A*2402 MHC multimers. For analysis, a BD LSRII SORP cytometer equipped with appropriate lasers and filters was used. Peptide specific cells were calculated as percentage of total CD8+ cells. Evaluation of multimeric analysis was done using the FlowJo software (Tree Star, Oreg., USA).

Row | Sequence | Positive wells/wells tested [%] | Positive donors/donors tested [%]
1 | NYEETFPHI (listed as Homo sapiens) [MUC6-001] | 21 | 50
2 | AYLVYTDRL (listed as Homo sapiens) [PPAP2C-001] | 54 | 100
3 | LYQILQGIVF (listed as Homo sapiens) [CDC2-001, gastric cancer associated TUMAP encoded by CDK1] | 28 | 88
4 | VYTTSYQQI (listed as Homo sapiens) [NFYB-001] | 7 | 50
5 | NYLLYVSNF [MMP11-001] | 11 | 33
6 | RYLWATVTI (listed as Homo sapiens) [ASPM-001] | 3 | 17
7 | IYNGKLFDLL (listed as Homo sapiens) [KIF2C-001] | 2 | 13
8 | VFDTAIAHLF (listed as Homo sapiens) [SIAH2-001] | 4 | 50
9 | QYASRFVQL (listed as Homo sapiens) [PLK4-001] | 5 | 60
10 | SYNPLWLRI (listed as Homo sapiens) [ASPM-002, gastric cancer associated TUMAP encoded by ASPM] | 31 | 63
11 | VYGIRLEHF (listed as Homo sapiens) [NUF2-001] | 25 | 100
12 | VYIEKNDKL (listed as Homo sapiens) [ERBB3-001] | 15 | 83
13 | AYAIIKEEL (listed as Homo sapiens) [ATAD2-001] | 4 | 50
14 | SYIDVLPEF (listed as Homo sapiens) [MET-006] | 22 | 63
15 | FYISPVNKL (listed as Homo sapiens) [AVL9-001] | 50 | 100
16 | VFIFKGNQF (listed as Homo sapiens) [MMP3-001] | 1 | 13
17 | NYLPFIMEL (listed as Homo sapiens) [UCHL5-001] | 14 | 75
18 | NYLLYVSNF [MST1R-001] (listed as Homo sapiens) | 14 | 50
19 | RFLSGIINF (listed as Homo sapiens) [NUF2-002] | 4 | 50
20 | HYKPTPLYF (listed as Homo sapiens) [SMC4-001] | 9 | 75
21 | KYNDTFWKEF (listed as Homo sapiens) [HSP90B1-001] | 4 | 50
22 | YYNAAGFNKL (listed as Homo sapiens) [UQCRB-001] | 38 | 100
23 | VYKVVGNLL (listed as Homo sapiens) [IQGAP3-001] | 24 | 100
24 | TYGNLLDYL (listed as Homo sapiens) [ABL1-001] | 13 | 50
25 | VWSDVTPLTF [PROM1-001] | 26 | 83
